# Data as given in patent publication EP4722195A1, “PH-SENSITIVE CATIONIC LIPID AND LIPID NANOPARTICLES” (National University Corporation Hokkaido University, priority 2023, dated 2024).
# Key:
# [1] = test system: spleen; test: Fluc activity in the spleen of mice administered Fluc mRNA-loaded lipid nanoparticles; type: in vivo, BALB/c mice; settings: Example 22, Fig. 1; TxT/DSPC/chol/PEG-DMG=50/15/35/1.5 (mol%); 0.1 mg mRNA/kg intravenous; six hours after administration; comparison among TxT lipids
# Procedure: (§1) Lipid nanoparticles were administered to mice by intravenous injection into the tail vein using a 27G needle. Unless otherwise specified, BALB/c mice (4 to 5 weeks old, female) were used.
# (§2) First, BALB/c mice (female, 4 weeks old) were intravenously injected with lipid nanoparticles encapsulating Fluc mRNA (Fluc mRNA-loaded lipid nanoparticles) at a dose of 0.1 mg mRNA/kg. Six hours after intravenous injection, the mice were euthanized, each tissue was collected, frozen in liquid nitrogen, and stored at -80°C. The tissues were homogenized in passive lysis buffer (manufactured by Promega) using a bead-type cell disruptor (Micro Smash MS-100R, manufactured by TOMY Seiko). Tissue debris was removed by centrifugation, and the supernatant was collected. Fluc activity in the supernatant was measured using the Luciferase Assay System (E1500, manufactured by Promega) according to the manufacturer's protocol. Luminescence was measured using a luminometer (Luminescencer-PSN, manufactured by ATTO). Protein concentration was determined using a commercially available assay kit (BCA Protein Assay Kit, manufactured by Pierce). Fluc activity was expressed as relative light units (RLU) per mg of protein. […]
# [2] = test system: proprotein convertase subtilisin/kexin type 9 (PCSK9); test: PCSK9-targeted genome editing in mice, serum PCSK9 (ELISA); type: in vivo, Balb/c mice; settings: Example 34, Fig. 13
# Procedure: Specifically, an RNA solution was first prepared to contain Cas9-mRNA (TriLink, 5moU-modified) and gRNA targeting proprotein convertase subtilisin/kexin type 9 (PCSK9) (SEQ ID NO: 3) at a mass ratio of 1:2 (N/P = 6.0). Using this RNA solution, in the same manner as Example 32, lipid nanoparticles encapsulating Cas9-mRNA and PCSK9-gRNA and having a composition of TxT-5-SA14/DSPC/chol/PEG-DMG = 50/3/47/1.5 (mol%) were prepared (lipid nanoparticles for PCSK9-targeted genome editing). […]
# Subsequently, the prepared lipid nanoparticles for PCSK9-targeted genome editing were administered via tail vein injection to female Balb/c mice (4 weeks old) at doses of 0.3, 1.0, and 2.0 mg RNA/kg. […] The collected blood was allowed to stand at room temperature for 1 hour, followed by centrifugation at 4°C, 1,000 × g for 10 minutes. The supernatant was collected to obtain serum. The concentration of PCSK9 in the serum was measured using a commercially available ELISA kit (Mouse/Rat PCSK9 ELISA Kit, CircuLex). Calibration samples were prepared by serial dilution from 6 ng/mL to obtain solutions of 3, 1.5, 0.75, 0.375, 0.188, and 0.094 ng/mL, each in 300 µL volumes. Serum samples were diluted 100-fold. […] Finally, 100 µL of Stop Solution (CircuLex) was added, and absorbance at 450 nm and 540 nm was measured using a spectrophotometer (Varioskan Lux, Thermo Fisher Scientific).
# [3] = test system: various tissues; test: Fluc activity in various tissues of mice administered Fluc mRNA-loaded lipid nanoparticles; type: in vivo, BALB/c mice; settings: Example 23, Figs. 2B to 2E; TxT-5-5A16/DSPC/chol/PEG-DMG=50/X/50-X/1.5 (mol%); 0.1 mg mRNA/kg; six hours
# Procedure: as §1, §2
smiles,measurement,setting,value
"CCCCCCC(CCCC)CNC(=O)CCCC(=O)OCC(COC(=O)CCCC(=O)NCC(CCCC)CCCCCC)(COC(=O)CCCC(=O)NCC(CCCC)CCCCCC)NC(=O)CCN1CCCCC1 (stereo not drawn) [TxT-5-5A12β, 2-(((5-((2-butyloctyl)amino)-5-oxopentanoyl)oxy)methyl)-2-(3-(piperidin-1-yl)propanamido)propane-1,3-diyl bis(5-((2-butyloctyl)amino)-5-oxopentanoate)]",Fluc activity in the spleen,[1],highest Fluc activity in the spleen
"CCCCCCCN(CCCCCCC)C(=O)CCCC(=O)OCC(COC(=O)CCCC(=O)N(CCCCCCC)CCCCCCC)(COC(=O)CCCC(=O)N(CCCCCCC)CCCCCCC)NC(=O)CCN1CCCCC1 [TxT-5-5A14, 2-(((5-(diheptylamino)-5-oxopentanoyl)oxy)methyl)-2-(3-(piperidin-1-yl)propanamido)propane-1,3-diyl bis(5-(diheptylamino)-5-oxopentanoate)]",PCSK9 knockout efficiency versus dose,"[2]; 0.3, 1.0, and 2.0 mg RNA/kg",dose-dependent increase in PCSK9 knockout efficiency
same,PCSK9 knockout activity,"[2]; dose of 2.0 mg RNA/kg tail vein, serum PCSK9 ten days after administration, N = 3 to 6",no less than 90%
"CCCCCCCCN(CCCCCCCC)C(=O)CCCC(=O)OCC(COC(=O)CCCC(=O)N(CCCCCCCC)CCCCCCCC)(COC(=O)CCCC(=O)N(CCCCCCCC)CCCCCCCC)NC(=O)CCN1CCCCC1 [TxT-5-5A16, 2-(((5-(dioctylamino)-5-oxopentanoyl)oxy)methyl)-2-(3-(piperidin-1-yl)propanamido)propane-1,3-diyl bis(5-(dioctylamino)-5-oxopentanoate)]","Effect of DSPC content on Fluc activity in the spleen, kidney, lung, and heart",[3],no effect of DSPC content on Fluc activity was observed
